Like-named read-outs stand apart in the source and are kept apart here.
Key:
[1] = tested on: platelets (human platelet-rich plasma); experiment: Platelet aggregation assay (turbidimetric, platelet-rich plasma) induced by collagen, ADP or arachidonic acid; type: cell-based
Text: Antiplatelet activity may be assessed using one or more in vitro (e.g., platelet aggregation) and/or in vivo (e.g., blood clotting time) assays. Antiplatelet activity may be assessed, for example, using a light transmittance aggregometry test based on the stimulation of platelet-platelet aggregation in platelet-rich plasma after stimulation with various agonists (e.g., ADP, α Arachidonic acid, collagen etc). This test has been the most widely used technique to monitor the effects of antiplatelet agents. Agonists and their concentration may be used to produce full aggregation. Under this condition, acetogenins may inhibit aggregation induced by any agonist; their half maximal inhibitory concentration (IC50) value may vary by the agonist used. Percent aggregation inhibition values may be calculated using the following equation: % Inhibition=(Maximal aggregation vehicle control−Maximal aggregation acetogenins)/Maximal aggregation vehicle control×100%. Under a dose-dependent antiplatelet activity, IC50 may represent the concentration of acetogenins required for 50% inhibition of stimulation of platelet aggregation. […]
To confirm the contribution of the isolated acetogenin compounds to antiplatelet activity, their individual activity was evaluated at different concentrations (0.15-15 mM). Aggregation was induced by different agonists that included collagen (5 μg mL−1), ADP (20 μM) and arachidonic acid (500 μM) in an approximation to explore the potential interference of acetogenins with the binding of a particular agonist to its cell surface receptor.
The platelet aggregation (induced by ADP, collagen and arachidonic acid) inhibitory activity of the purified molecules was evaluated was conducted in accordance with the Helsinki Declaration using human blood donated to the blood bank of Instituto Nacional de Cardiología Ignacio Chávez. Blood samples were taken from healthy volunteers who had not taken any medications for at least 2 weeks, or ingested any alcohol for at least 24 h prior to sample collection. Blood was collected by venipuncture into Vacutainer (BD Diagnostics, Plymouth, UK) tubes containing 3.8% sodium citrate as an anticoagulant (at a 9:1 ratio, v/v). Platelet-rich plasma (PRP) and platelet-poor plasma (PPP) were obtained as earlier reported by A. De la Peña, G. Baños, R. Izaguirre, J. J. Mandoki and J. M. Fernández, Comparative effect of synthetic aminoestrogens with estradiol on platelet aggregation, Steroids, 1993, 58(9), 407-409. The assays were carried out within 2 h after the blood had been drawn.
Evaluation of platelet aggregation was performed by turbidimetric measurements according to S. S. Falkenberg, I. Tarnow, A. Guzman, P. Molgaard and H. T. Simonsen, Mapuche herbal medicine inhibits blood platelet aggregation, Evid. Based Complement. Alternat. Med., 2012, 2012, 647620, with some modifications. PRP adjusted with PPP to a platelet count of 2.5×108 mL^−1 (215 μL) was pre-incubated at 37° C. for 10 min with the evaluated sample (10 μL) and at various concentrations.
Platelet aggregation was initiated by the addition of 25 μL of the platelet agonist. The final concentrations of agonists in the reaction mixture were 20 μM ADP, 500 μM arachidonic acid or 5 μg mL^−1 collagen, all obtained from Chrono-PAR. Corporation (Havertown, Pa., USA). Aggregation response was recorded for 10 min using a Chrono-log Model 700 Whole Blood/Optical Lumi-Aggregometer (Chrono-Log, Havertown, Pa., USA). Maximal aggregation (MA) observed for samples containing avocado extracts, at different degrees of purification, was compared to those of vehicle controls (DMSO 2 M) evaluated under the same experimental conditions. Percent aggregation inhibitions, for all samples, were calculated using the following equation: % Inhibition=(MA vehicle control−MA extract)/MA vehicle control×100%. […]

Male adult CD1 mice [2] = experiment: Blood clotting time test in mice; type: in vivo
Protocol: (§1) All in vivo experiments were conducted in accordance with the Mexican National Protection Laws on Animal Protection and the General Health Law Related to Health Research (NOM-062-Z00-1999). All procedures were approved by an ethics committee. Male adult CD1 mice weighing 25-35 g were used (obtained from the Animal Care Unit from Facultad de Medicina, UNAM).
Animals were distributed among groups according to a balanced design based on body weight (3 animals per group in each experiment). Room temperature was kept constant (21-24° C.), and with light-dark cycles of 12 h. Food and water were given ad libitum. Persenone-A was dissolved in DMSO (vehicle) and administered intraperitoneally (i.p.). Control animals only received the vehicle (1.66 mL kg−1).
In a blood clotting time test groups of animals received a single i.p. administration of Persenone A (1, 10 or 100 mg kg^−1 of body weight, respectively) or vehicle. Blood clotting time was measured 24 h after administration, as described in R. Jaimez, A. Cooney, K. Jackson, A. E. Lemus, C. […] Time was counted from the instant that blood first made contact with the glass capillary tube and until the blood ceased to flow. […]
The data shown in FIG. 4 is representative of at least three independent experiments. Results were expressed as means±SEM. […]

Male adult CD1 mice [3] = experiment: Experimental thrombosis model test (surgical stasis of femoral vasculature); type: in vivo; conditions: 25 mg kg−1 single i.p.; thrombosis induced after 24 h
Text: Antithrombic activity may be assessed using one or more in vivo (e.g., experimental thrombosis model) assays. For example, after thrombus induction, femoral segments may be removed, fixed, and stained. These segments may be then scored by a pathologist in a double blind manner. Quantitative measurement may be obtained by computerized plannimetry, reaching a quantitative morphological description of structures at the two-dimensional level. Image analysis may be performed using ImageJ software. Minimal occlusion (0.2%) may be observed in controls arteries and test specimens may display thrombus occlusion 40% of the vascular light.
as §1, with “UNAM). […]” for “UNAM).”
Additionally, an experimental thrombosis model test was performed by subjecting mice to an acute ischemic challenge. […] 4 μm thick sections were stained with Masson's trichrome and hematoxylin-eosin, and scored by a pathologist for the percentage of thrombus induction based on the occlusion of vascular light.

[4] = Homo sapiens, Platelet, ADP 20 μM, read-out: Half-maximal inhibition concentration (IC50), ADP-induced platelet aggregation
[5] = Homo sapiens, Platelet, Arachidonic acid 500 μM, read-out: Half-maximal inhibition concentration (IC50), arachidonic acid-induced platelet aggregation
[6] = Homo sapiens, Platelet, Collagen 5 μg mL−1, read-out: Half-maximal inhibition concentration (IC50), collagen-induced platelet aggregation

Row | Compound | IC50 [1, 4] [mM] | IC50 [1, 5] [mM] | IC50 [1, 6] [mM] | inhibition of collagen-induced aggregation (in words) ([1]; collagen-induced) | IC50 ([1]; Homo sapiens, Platelet, arachidonic acid-induced, read-out: IC50, arachidonic acid-induced platelet aggregation (as printed in text)) [mM] | IC50 for arachidonic acid-induced aggregation, fold lower than for ADP-induced aggregation ([1]; arachidonic acid vs ADP) [fold] | inhibition of platelet aggregation (in words) ([1]; any of the evaluated concentrations (0.15-15 mM)) | IC50 ([1]; Collagen 5 μg mL−1, read-out: Half-maximal inhibition concentration (IC50), collagen-induced platelet aggregation) [mM] | increase in blood clotting time (Male adult CD1 mice [2]; 100 mg kg−1 single i.p., measured 24 h after administration, relative to vehicle) [fold] | EC50 of blood clotting time (Male adult CD1 mice [2]; single i.p., 24 h after administration) | decrease in luminal occlusion compared to the stasis group (Male adult CD1 mice [3]) [%] | inhibition at 15000 µM ([1]; Homo sapiens, Platelet, 15 mM, arachidonic acid, read-out: inhibition of arachidonic acid-induced platelet aggregation at the highest concentration) [%] | inhibitory concentration, fold higher than Persenone-C ([1]; all three agonists (collagen, ADP, arachidonic acid)) [fold]
1 | C=C/C=C/CCCCCCCCCCCC(=O)CC(O)COC(C)=O (stereo not shown) [Acetogenin 2, Persediene] | > 15 | > 15 | 12 ± 1.24 | inhibited collagen-induced aggregation | – | – | – | – | – | – | – | – | –
2 | CC(=O)Oc1ccccc1C(=O)O [Aspirin, acetylysalicylic acid, reference compound] | 3.65 ± 0.07 | 0.07 ± 0.01 | 0.38 ± 0.07 | – | 0.07 ± 0.01 | 50 | – | – | – | – | – | – | –
3 | CCCCC/C=C\C/C=C\CCCCCCCC(=O)CC(O)COC(C)=O (stereo not shown) [Acetogenin 6, Persin] | > 15 | > 15 | > 15 | – | – | – | did not inhibit platelet aggregation | – | – | – | – | – | –
4 | CC/C=C/CCCCCCCCC/C=C/C(=O)CC(O)COC(C)=O (stereo not shown) [Acetogenin 3, Persenone-C] | 5.22 ± 1.19 | 7.4 ± 1.2 | 3.42 ± 1.56 | – | – | – | – | 5.23 ± 1.19 | – | – | – | – | –
5 | CCCCC/C=C\C/C=C\CCCCC/C=C/C(=O)CC(O)COC(C)=O (stereo not shown) [Acetogenin 4, Persenone-A] | 13.5 ± 1.41 | > 15 | 8.73 ± 1.25 | – | – | – | – | – | 2 | 24.8±1.7 mg kg^−1 of body weight | 71 | < 50 | –
6 | C=CCCCCCCCCCCC[C@H](O)C[C@H](O)COC(C)=O [Acetogenin 1, (2S,4S)-1-acetoxy-2,4-dihydroxy-n-heptadeca-16-ene] | 7.29 ± 1.21 | 13.4 ± 1.26 | 8.18 | – | – | – | – | – | – | – | – | – | > 1.5

From patent publication US10493057B2, “Acetogenin molecules having antiplatelet and/or antithrombic activities, and methods and compositions thereof” (INSTITUTO TECNOLOGICO Y DE ESTUDIOS SUPERIORES DE MONTERREY, priority 2015, dated 2019)
